Test results: patent US6465501B2, “Azolidines as β3 adrenergic receptor agonists” (Wyeth, priority 2000, dated 2002)
Structures can show the parent of a compound that is named as a salt.

First: CN1C(=O)SC(Nc2ccc(CCNC[C@H](O)COc3ccc(OCc4ccccc4)cc3)cc2)C1=O (stereo partly drawn) (as salt: HBr) [Example 2, 5-{4-[2-({(2 S)-3-[4-(Benzyloxy}phenoxy]-2-hydroxypropyl}amino)ethyl]anilino}-3-methyl-1,3-thiazolidine-2,4-dione]
Second: CN(c1ccc(CCNC[C@H](O)COc2ccc(OCc3ccccc3)cc2)cc1)C1SC(=O)NC1=O (stereo partly drawn) (as salt: salt) [Example 26, 5-[(4-{2-[(2 S)-3-(4-Benzyloxy-phenoxy)-2-hydroxy-propylamino]-ethyl}-phenyl)-methyl-amino]-thiazolidine-2,4-dione]
The melting point of the first is higher: 165 to 167 °C for the first, 51 to 53 °C for the second.

Going from O=C1NC(=O)C(Nc2ccc(CCNC[C@H](O)COc3ccc(F)cc3)cc2)S1 (stereo partly drawn) (as salt: salt) (hydrate or solvate) [Example 8, 5-[4-(2-{[(2 S)-3-(4-Fluorophenoxy)-2-hydroxypropyl]amino}ethyl)anilino]-1,3-thiazolidine-2,4-dione] to COc1ccc(OC[C@@H](O)CNCCc2ccc(NC3SC(=O)NC3=O)cc2)cc1 (stereo partly drawn) (as salt: salt) (hydrate or solvate) [Example 10, 5-[4-(2-{[(2 S)-2-Hydroxy-3-(4-methoxyphenoxy)propyl]amino}ethyl)anilino]-1,3-thiazolidine-2,4-dione], the melting point rises from 55 °C to 56 °C.

First: O=C1NC(=O)C(Nc2ccc(CCNC[C@H](O)COc3ccccc3)cc2)S1 (stereo partly drawn) (as salt: salt) (hydrate or solvate) [Example 9, 5-[4-(2-{[(2 S)-2-Hydroxy-3-phenoxypropyl]amino}ethyl)anilino]-1,3-thiazolidine-2,4-dione]
Second: O=C1NC(=O)C(Nc2ccc(CCNC[C@H](O)COc3cccc(O)c3)cc2)S1 (stereo partly drawn) (as salt: salt) (hydrate or solvate) [Example 12, 5-[4-(2-{[(2 S)-2-Hydroxy-3-(3-hydroxyphenoxy)propyl]amino}ethyl)anilino]-1,3-thiazolidine-2,4-dione]
The melting point of the first is lower: 55 °C for the first, 65 °C for the second.

Compared with O=C1NC(=O)C(Nc2ccc(CCNC[C@H](O)COc3cccc4[nH]c5ccccc5c34)cc2)S1 (stereo partly drawn) (as salt: salt) (hydrate or solvate) [Example 13, 5-[4-(2-{[(2 S)-3-(9 H-Carbazol-4-yloxy)-2-hydroxypropyl]amino}ethyl)anilino]-1 ,3-thiazolidine-2,4-dione], O=C1NC(=O)C(Nc2ccc(CCNCC(O)COc3cccc4ccccc34)cc2)S1 (stereo not drawn) (hydrate or solvate) [Example 23, 5-(4-{2-[2-Hydroxy-3-(naphthalen-1-yloxy)-propylamino]-ethyl}-phenylamino)-thiazolidine-2,4-dione] is lower in melting point: 140 °C for the first, 61 to 62 °C for the second.

Compared with CS(=O)(=O)Nc1cc([C@H](O)CNCCc2ccc(NC3SC(=O)NC3=O)cc2)ccc1O (stereo partly drawn) (as salt: salt) (hydrate or solvate) [Example 14, N{5-[(1 S)-2-({4-[(2,4-Dioxo-1,3-thiazolidin-5-yl)amino]phenethyl}amino)-1-hydroxyethyl]-2-hydroxyphenyl}methanesulfonamide], O=C1NC(=O)C(Nc2ccc(CCNC[C@H](O)c3ccccc3)cc2)S1 (stereo partly drawn) (as salt: salt) [Example 7, 5-[4-(2-{[(2 R)-2-Hydroxy-2-phenylethyl]amino}ethyl)anilino]-1,3-thiazolidine-2,4-dione] is lower in melting point: 130 °C for the first, 55 °C for the second.

First: O=C1NC(=O)C(Nc2ccc(CCNC[C@H](O)COc3ccc4occc4c3)cc2)S1 (stereo partly drawn) (as salt: salt) (hydrate or solvate) [Example 15, 5-[4-(2-{[(2 S)-3-(1-Benzofuran-5-yloxy)-2-hydroxypropyl]amino}ethyl)anilino]-1,3-thiazolidine-2,4-dione]
Second: O=C1NC(=O)C(Nc2ccc(CCNC[C@H](O)COc3ccc4ccccc4c3)cc2)S1 (stereo partly drawn) (hydrate or solvate) [Example 21, 5-(4-{2-[(2 S)-2-Hydroxy-3-(naphthalen-2-yloxy)-propylamino]-ethyl}-phenylamino)-thiazolidine-2,4-dione]
The melting point of the first is lower: 50 °C for the first, 90 to 91 °C for the second.

Compared with CN(c1ccc(CCNC[C@H](O)COc2ccccc2)cc1)C1SC(=O)NC1=O (stereo partly drawn) (as salt: salt) (hydrate or solvate) [Example 17, 5-[4-(2-{[(2 S)-2-Hydroxy-3-phenoxypropyl]amino}ethyl)(methyl)anilino]-1,3-thiazolidine-2,4-dione.], O=C1NC(=O)C(N(Cc2ccc(Br)cc2)c2ccc(CCNC[C@H](O)COc3ccccc3)cc2)S1 (stereo partly drawn) (hydrate or solvate) [Example 29, 5-((4-Bromo-benzyl)-{4-[2-((2 S)-2-hydroxy-3-phenoxy-propylamino)-ethyl]-phenyl}-amino)-thiazolidine-2,4-dione] is lower in melting point: 58 °C for the first, 52 to 54 °C for the second.

First: CC(Cc1ccc(NC2SC(=O)NC2=O)cc1)NC[C@H](O)c1cccc(Cl)c1 (stereo partly drawn) (as salt: salt) (hydrate or solvate) [Example 18, 5-[4-(2-{[(2 R)-2-(3-Chlorophenyl)-2-hydroxyethyl]amino}propyl)anilino]-1,3-thiazolidine-2,4-dione]
Second: O=C1NC(=O)C(Nc2ccc(CCNC[C@@H](O)COc3cccc4[nH]c(=O)[nH]c34)cc2)S1 (stereo partly drawn) (as salt: salt) [Example 19, 5-{4-[2-({(2 R)-2-Hydroxy-3-[(2-oxo-2,3-di hydro-1 H-benzimidazol-4-yl)oxy]propyl}amino)ethyl]anilino}-1,3-thiazolidine-2,4-dione]
The melting point of the first is lower: 83 to 85 °C for the first, 172 °C for the second.

Compared with O=C1NC(=O)C(Nc2ccc(CCNC[C@H](O)COc3ccc(Oc4ccccc4)cc3)cc2)S1 (stereo partly drawn) (as salt: salt) [Example 1, 5-[4-(2-{[(2 S)-2-Hydroxy-3-(4-phenoxyphenoxy)propyl]amino}ethyl)anilino]-1,3-thiazolidine-2,4-dione], O=C1NC(=O)C(N(Cc2ccc(Br)cc2)c2ccc(CCNC[C@H](O)COc3ccc(OCc4ccccc4)cc3)cc2)S1 (stereo partly drawn) (as salt: salt) [Example 25, 5-[(4-{2-[(2 S)-3-(4-Benzyloxy-phenoxy)-2-hydroxy-propylamino]-ethyl}-phenyl)-(4-bromo-benzyl)-amino]-thiazolidine-2,4-dione] is lower in melting point: 72 to 74 °C for the first, 50 to 52 °C for the second.

Work on O=C1NC(=O)C(N(CC#Cc2ccc(F)cc2)c2ccc(CCNC[C@H](O)COc3ccc(OCc4ccccc4)cc3)cc2)S1 (stereo partly drawn) (hydrate or solvate) [Example 27, 5-[(4-{2-[(2 S)-3-(4-Benzyloxy-phenoxy)-2-hydroxy-propylamino]-ethyl}-phenyl)-[3-(4-fluoro-phenyl)-prop-2-ynyl]-amino}-thiazolidine-2,4-dione] yielded a melting point of 99 to 101 °C.

For O=C1NC(=O)C(Nc2ccc(CCNC[C@H](O)COc3ccc4c(c3)OCO4)cc2)S1 (stereo partly drawn) (hydrate or solvate) [Example 24, 5-(4-{2-[(2 S)-3-(Benzo[1,3]dioxol-5-yloxy)-2-hydroxy-propylamino]-ethyl}-phenylamino)-thiazolidine-2,4-dione], the melting point was 65 °C (dec.).
With O=C1NC(=O)C(N(Cc2ccc(Br)cc2)c2ccc(CCNC[C@H](O)COc3ccc(O)cc3)cc2)S1 (stereo partly drawn) (hydrate or solvate) [Example 28, 5-[(4-Bromo-benzyl)-(4-{2-[(2 S)-2-hydroxy-3-(4-hydroxy-phenoxy)-propylamino]-ethyl}-phenyl)-amino]-thiazolidine-2,4-dione] the melting point was 79 °C (dec.).
